# Values of other authors, collected in patent publication US10563162B2, “Microbial electro-photosynthesis” (Arizona Board of Regents on behalf of Arizona State …, priority 2014, dated 2020).
# Conditions: listed property of redox mediator / natural electron acceptor; no method given
Compound,"midpoint potential (E^0,) [mV]",number of electrons transported (# e−)
O=C1C=CC(=O)C=C1 [Benzoquinone],280,2
CC1=C(C)C(=O)C(C)=C(C)C1=O [Duroquinone],5,2
CN(C)c1ccc2nc3ccc(=[N+](C)C)cc-3sc2c1 [Methylene Blue],11,2

# The remaining lines, values ahead:
"midpoint potential (E^0,) [mV]",number of electrons transported (# e−),Compound
80,2,CC(C)=CCC/C(C)=C/CC/C(C)=C/CC/C(C)=C/CC/C(C)=C/CC/C(C)=C/CC/C(C)=C/CC/C(C)=C/CC/C(C)=C/CC1=CC(=O)C(C)=C(C)C1=O [Plastoquinone]
64,2,Thionine
